pIC50, pKi: −log10 of the molar value.
Assays:
[1] = tested on: PC-3 cells; assay: Inhibition of cell growth (MTT), PC-3 cells; conditions: Homo sapiens, PC-3, 120 h, read-out: IC50 PC-3
Protocol: (§1) HCT-116 and PC-3 cells were cultured at 37° C. with 5% CO2 and in 10% fetal bovine serum with McCoy's 5A modified medium and F-12 K medium respectively. Cells were plated on 96 well plates at a density of 2,000-4,000/well in the volume of 100 μL medium. […] The control wells contained 1% dimethylsulfoxide only in their medium. After further incubation of three to five days to allow cells grow before the control cells reach confluence, 15 μL/well MTT reagent (5 mg/mL) were added and incubated for 4 h. After the incubation, the medium was removed and the newly generated formazan solubilized with dimethylsulfoxide (100 μL/well) and measured at 540 nm. The absorption data were fit into equation and calculated for IC50 values through use of the program KaleidaGraph (Synergy Software). The fitting equation for IC50 is y=a+b/(1+(x/IC50)); x is the compound concentration, a is the background absorption at 540 nm, and b is the absorption at zero compound concentration.

[2] = tested on: HCT-116 cells; assay: Inhibition of cell growth (MTT), HCT-116 cells; conditions: Homo sapiens, HCT-116, 120 h, read-out: IC50 HCT 116 cells
Protocol: as §1

[3] = molecular target: T1, human CK2 (Homo sapiens, UniProt P68400); assay: CK2 protein kinase inhibition assay (spectrophotometric PK/LDH coupled assay); assay type: biochemical
T1 construct: Full Length His-tagged Human CK2 was cloned, expressed, and purified; His tag; made in house; host or cells: E. coli
T1 sequence (P68400 whole entry): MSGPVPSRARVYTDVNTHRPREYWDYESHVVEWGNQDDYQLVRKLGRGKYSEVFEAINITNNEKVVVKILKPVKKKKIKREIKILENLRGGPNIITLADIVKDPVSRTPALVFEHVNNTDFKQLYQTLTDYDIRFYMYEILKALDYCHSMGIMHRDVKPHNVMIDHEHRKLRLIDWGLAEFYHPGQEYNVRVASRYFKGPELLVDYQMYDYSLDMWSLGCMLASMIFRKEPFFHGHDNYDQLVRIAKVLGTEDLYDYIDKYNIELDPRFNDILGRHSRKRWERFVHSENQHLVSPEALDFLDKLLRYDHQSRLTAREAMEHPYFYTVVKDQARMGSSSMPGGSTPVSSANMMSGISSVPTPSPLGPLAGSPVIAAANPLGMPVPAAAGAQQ
Protocol: CK2 protein kinase activity was measured through use of a spectrophotometric PK/LDH coupled assay to detect ATP turnover. Full Length His-tagged Human CK2 was cloned, expressed, and purified from an E. coli expression system. The peptide substrate for CK2 phosphorylation was […] (Genscript Corporation, Piscataway, N.J., USA). […] Prior to the addition of ATP to initiate the phosphorylation reaction, CK2 enzyme was pre-incubated with inhibitors and other assay components for 5 min. Progress of the reaction was continuously monitored by the change in UV/Vis absorbance at 340 nm. […] In the case of very potent binding, tight-binding methods were employed to determine Ki.

Row | pIC50 [1] | pIC50 [2] | pKi [3] | SMILES
1 | > 6.00 | > 6.00 | – | O=C1CCCCc2cnn3c(NC4CC4)nc(nc23)Nc2cccc(c2)N1 [Compound 11a, (11,14)3,5N-{cyclopropyl-pyrazolo[1,5-a][1,3,5]triazin-4-ylamino}-(2N,4N)-phenyl-1,5-diaza-cyclotetradeca-8-one]
2 | > 6.00 | > 6.00 | > 7.00 | O=C1CCCCc2cnn3c(Nc4cccnc4)nc(nc23)Nc2cccc(c2)N1 [Compound 11d, (11,14)3,5N-{pyrid-3-yl-pyrazolo[1,5-a][1,3,5]triazin-4-yl-amino}-(2N,4N)-phenyl-1,5-diaza-cyclotetradeca-8-one]
3 | > 6.00 | > 6.00 | > 7.00 | CCOc1cccc(Nc2nc3nc4c(cnn24)CCCCC(=O)Nc2cccc(c2)N3)c1 [Compound 11e, (11,14)3,5N-{(3-ethoxyphenyl)-pyrazolo[1,5-a][1,3,5]triazin-4-yl-amino}-(2N,4N)-phenyl-1,5-diaza-cyclotetradeca-8-one]
4 | > 6.00 | > 6.00 | > 7.00 | CN1CCC(N(C)C(=O)c2cccc(Nc3nc4nc5c(cnn35)CCCCC(=O)Nc3cccc(c3)N4)c2)C1 (centres unmarked) [Compound 11g, (11,14)3,5N-{3-(3-{[methyl(1-methylpyrrolidin-3-yl)amino]carbonyl}phenyl)-pyrazolo[1,5-a][1,3,5]triazin-4-yl-amino}-(2N,4N)-phenyl-1,5-diaza-cyclotetradeca-8-one]
5 | > 6.00 | > 6.00 | > 7.00 | CN1CCN(C(=O)c2cccc(Nc3nc4nc5c(cnn35)CCCCC(=O)Nc3cccc(c3)N4)c2)CC1 [Compound 11h, (11,14)3,5N-{3-(4-methylpiperazin-1-ylcarbonyl)phenyl-pyrazolo[1,5-a][1,3,5]triazin-4-yl-amino}-(2N,4N)-phenyl-1,5-diaza-cyclotetradeca-8-one]
6 | > 6.00 | > 6.00 | > 7.00 | CN(C)C1CCN(C(=O)c2cccc(Nc3nc4nc5c(cnn35)CCCCC(=O)Nc3cccc(c3)N4)c2)C1 (centres unmarked) [Compound 11i]
7 | > 6.00 | > 6.00 | > 7.00 | CCN(CC)C(=O)c1cccc(Nc2nc3nc4c(cnn24)CCCCC(=O)Nc2cccc(c2)N3)c1 [Compound 11j, (11,14)3,5N-{4-[(3-{3-(diethylamino)carbonyl}phenyl)amino]-pyrazolo[1,5-a][1,3,5]triazin-4-yl-amino}-(2N,4N)-phenyl-1,5-diaza-cyclotetradeca-8-one]
8 | > 6.00 | > 6.00 | > 7.00 | CN(C)CCNC(=O)c1cccc(Nc2nc3nc4c(cnn24)CCCCC(=O)Nc2cccc(c2)N3)c1 [Compound 11k, (11,14)3,5N-{4-{[3-({[2-(dimethylamino)ethyl]-amino}carbonyl)phenyl]amino}-pyrazolo[1,5-a][1,3,5]triazin-4-yl-amino}-(2N,4N)-phenyl-1,5-diaza-cyclotetradeca-8-one]
9 | > 6.00 | > 6.00 | > 7.00 | O=C1CCCCc2cnn3c(Nc4cccc(C(=O)N5CC(O)C5)c4)nc(nc23)Nc2cccc(c2)N1 [Compound 11l, (11,14)3,5N-{4-({3-[(3-hydroxyazetidin-1-yl)carbonyl]phenyl}amino)-pyrazolo[1,5-a][1,3,5]triazin-4-yl-amino}-(2N,4N)-phenyl-1,5-diaza-cyclotetradeca-8-one]
10 | > 6.00 | > 6.00 | > 7.00 | CN1CC(NC(=O)c2cccc(Nc3nc4nc5c(cnn35)CCCCC(=O)Nc3cccc(c3)N4)c2)C1 [Compound 11m]
11 | > 6.00 | > 6.00 | > 7.00 | CN(C)CCN(C)C(=O)c1cccc(Nc2nc3nc4c(cnn24)CCCCC(=O)Nc2cccc(c2)N3)c1 [Compound 11n, (11,14)3,5N-{4-[(3-{[[2-(dimethylamino)ethyl](methyl)-amino]carbonyl}phenyl)amino]-pyrazolo[1,5-a][1,3,5]triazin-4-yl-amino}-(2N,4N)-phenyl-1,5-diaza-cyclotetradeca-8-one]
12 | – | > 6.00 | > 7.00 | CN1CCC(N(C)C(=O)c2cccc(Nc3nc4nc5c(cnn35)CCCCC(=O)Nc3cccc(c3)N4)c2)CC1 [Compound 11o, (11,14)3,5N-{4-[(3-{[methyl(1-methylpiperidin-4-yl)amino]carbonyl}-phenyl)amino]-pyrazolo[1,5-a][1,3,5]triazin-4-yl-amino}-(2N,4N)-phenyl-1,5-diaza-cyclotetradeca-8-one]
13 | > 6.00 | > 6.00 | > 7.00 | CCN(CC)C1CCN(C(=O)c2cccc(Nc3nc4nc5c(cnn35)CCCCC(=O)Nc3cccc(c3)N4)c2)C1 (centres unmarked) [Compound 11p, (11,14)3,5N-{[(3-{[3-(diethylamino)pyrrolidin-1-yl]carbonyl}phenyl)amino]-pyrazolo[1,5-a][1,3,5]triazin-4-yl-amino}-(2N,4N)-phenyl-1,5-diaza-cyclotetradeca-8-one]
14 | > 6.00 | > 6.00 | > 7.00 | CCN(CC)C1CN(C(=O)c2cccc(Nc3nc4nc5c(cnn35)CCCCC(=O)Nc3cccc(c3)N4)c2)C1 [Compound 11q, (11,14)3,5N-{[(3-{[3-(diethylamino)azetidin-1-yl]carbonyl}-phenyl)amino]-pyrazolo[1,5-a][1,3,5]triazin-4-yl-amino}-(2N,4N)-phenyl-1,5-diaza-cyclotetradeca-8-one]
15 | – | > 6.00 | > 7.00 | O=C1CCCCc2cnn3c(Nc4cccc(C(=O)N5CCNCC5)c4)nc(nc23)Nc2cccc(c2)N1 [Compound 11r, (11,14)3,5N-{{[3-(piperazin-1-ylcarbonyl)phenyl]amino}-pyrazolo[1,5-a][1,3,5]triazin-4-yl-amino}-(2N,4N)-phenyl-1,5-diaza-cyclotetradeca-8-one]
16 | – | > 6.00 | > 7.00 | CCN(CC)CCN(C)C(=O)c1cccc(Nc2nc3nc4c(cnn24)CCCCC(=O)Nc2cccc(c2)N3)c1 [Compound 11s]
17 | > 5.52 | > 5.52 | > 7.00 | CN(C)C1CCN(C(=O)c2cccc(Nc3cc4nc5c(cnn35)CCCCC(=O)Nc3cccc(c3)N4)c2)C1 (centres unmarked) [Compound 18a, (11,14)3,5N-{[(3-Dimethylamino-pyrrolidine-1-carbonyl)-phen-3-yl]-pyrazolo[1,5-a]pyrimidin-2,4-yl-diamino}-(2N,4N)-phenyl-1,5-diaza-cyclotetradecan-6-one]
18 | > 5.52 | > 5.52 | > 7.00 | O=C1CCCCc2cnn3c(NC4CC4)cc(nc23)Nc2cccc(c2)N1 [Compound 18b]
